Assay type in all cases: cell-based
The target in one test is T1, PLK1 (Homo sapiens, UniProt P53350).
T1 construct: endogenous in cells; host or cells: HeLa LgBit (Plk1-HiBit KI): HeLa cells stably expressing LgBit, with HiBit knocked into the endogenous Plk1 locus by CRISPR/Cas9
As to the kind of experiment: Luciferase assay for PLK1 in HeLa LgBit (Plk1-HiBit KI) cell line. The conditions noted are these: 300 nM compound, luminescence after 9 hours, read-out: Activity: ratio of the luminescense value of compound treatment group to DMSO treatment group. Here is the method:
2. Luciferase Assay for PLK1
(1) Preparation and Culture of HeLa LgBit (Plk1-HiBit KI) Cell Line
A HeLa cell line in which the LgBit vector was transfected and expressed stably was prepared. Then, after constructing gRNA and donor to express the HiBit amino acid sequence behind the C-terminal of the Plk1 gene, which was inherent in the cell, it was inserted into the cell together with a vector capable of expressing CRISPR/Cas9. Only the cells in which the insertion was completed and knock-in had progressed were selected, sub-cultured and used.
(2) Treatment of Compounds of the Present Invention and Method of Luciferase Assay
In the case of HeLa LgBit (Plk1-HiBit KI), the compounds were treated after being released after thymidine block, and the process was as follows. Thymidine (Sigma-Aldrich Cat. No. T9250-5G) was completely dissolved in DW and used in the experiment. For thymidine block, the products were treated with 2 mM of thymidine and then incubated for 24 hours. For release and chemical treatment, the medium was suctioned and washed with 1×PBS. TrypLE™ was added and incubated in 37° C. CO2 incubator for 5 min. Cells neutralized by adding complete media were counted through a counter. For each well of a 96-well culture plate (SPL), 3.3×10^4 cells and a total medium volume of 150 μL were seeded and incubated in a CO2 incubator.
Each cell line was incubated in a CO2 incubator for 18 hours, and Endurazine was added to each well to make up 4% of the total volume. After adding the compound of the present invention in a 96-well white plate (SPL) to a concentration of 300 nM, the wavelength of the plate reader (BMG Labtech, CLARIOstar Plus) was set to […], and then the luminescence was tracked in real time.
In Table 2, Activity represents the ratio of the luminescense value of each Exemplary Compound treatment group to DMSO treatment group (+++: <0.3, ++<0.6, +<0.7).

In another test the test system is NCI-H526 cell line. In words: Cell viability assay for H526 cell line. Conditions: Homo sapiens, NCI-H526, 120 h; H526 cells, 5 days, EZ-Cytox, 3000 nM to 0.46 nM. Here is the method: 3. Cell Viability Assay for H526 Cell Line
(1) Culture of NCI-H526 Cell Line
(2) Treatment of Compounds of the Present Invention and Method of Cell Viability Assay
After treating the compound to each well to make the total volume of 200 μL, it was cultured in a CO2 incubator (Thermo Fisher Science, Cat. No. 4111) for 5 days.
The absorbance of the completely cultured sample was measured by setting the wavelength of a plate reader (BMG Labtech, CLARIOstar Plus) to […], and was measured after shaking for 3 minutes in a plate reader before measurement.
In Table 3, Activity represents IC50 value of each Exemplary Compound treatment group to H526 cell line (A: <30 nM, B: <50 nM, C: <100 nM, D: <200 nM, E: <400 nM).

For a further test, the system named is MRC-5 cell line. In words: Cell viability assay (cytotoxicity) for MRC-5 cell line. The conditions noted are these: Homo sapiens, MRC5, 120 h; MRC-5 normal cell line, 5 days, EZ-Cytox, 10000 nM to 1.52 nM; read-out: Activity: IC50 value to MRC-5 cell line (Exemplary Compounds). Here is the method:
4. Cell Viability Assay for MRC-5 Cell Line
(1) Culture of MRC-5 Cell Line
Passage of cultured cells was maintained within P15.
(2) Treatment of Compounds of the Present Invention
Then, it was cultured in 37° C.
(3) Cytotoxicity Experiment
CO2 incubator for 4 hours.
Cell Viability Assay for MRC-5 cell line

pIC50: −log10 of the molar value.

T1 sequence (P53350 whole entry): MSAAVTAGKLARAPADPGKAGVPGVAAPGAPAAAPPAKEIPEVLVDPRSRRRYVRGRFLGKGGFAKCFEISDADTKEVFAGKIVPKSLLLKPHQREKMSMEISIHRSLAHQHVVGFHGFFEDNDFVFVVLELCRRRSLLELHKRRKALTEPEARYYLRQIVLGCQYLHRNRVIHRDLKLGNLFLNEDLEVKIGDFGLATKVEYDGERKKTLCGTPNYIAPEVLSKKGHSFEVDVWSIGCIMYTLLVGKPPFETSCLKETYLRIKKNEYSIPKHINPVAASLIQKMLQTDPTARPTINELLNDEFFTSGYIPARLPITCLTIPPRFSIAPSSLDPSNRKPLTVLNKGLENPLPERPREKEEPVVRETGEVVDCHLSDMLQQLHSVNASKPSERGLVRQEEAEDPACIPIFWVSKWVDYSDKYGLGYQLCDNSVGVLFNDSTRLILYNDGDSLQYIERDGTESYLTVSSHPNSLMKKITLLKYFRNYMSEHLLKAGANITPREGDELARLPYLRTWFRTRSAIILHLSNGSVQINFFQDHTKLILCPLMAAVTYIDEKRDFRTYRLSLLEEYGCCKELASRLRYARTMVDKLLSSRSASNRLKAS

The term pIC50 denotes the IC50 on a negative log10 scale, so that one unit is a factor of ten. Take `COc1cc(C(=O)NC2CC3(CCN(CC4CCN(c5ccc(C6CCC(=O)NC6=O)cc5F)CC4)CC3)C2)ccc1Nc1ncc2c(n1)N(C1CCCC1)CC(F)(F)C(=O)N2C` (stereo not drawn) [Compound 15, 4-((9-cyclopentyl-7,7-difluoro-5-methyl-6-oxo-6,7,8,9-tetrahydro-5H-pyrimido[4,5-b][1,4]diazepin-2-yl)amino)-N-(7-((1-(4-(2,6-dioxopiperidin-3-yl)-2-fluorophenyl)piperidin-4-yl)methyl)-7-azaspiro[3.5]nonan-2-yl)-3-methoxybenzamide]: the remaining activity at 0.3 µM at PLK1 is under 30%. Also, the pIC50 with NCI-H526 cell line was over 7.52; in the test on MRC-5 cell line it was under 5.00.

For the compound `COc1cc(C(=O)NC2CC3(CCN(CC4CCN(c5ccc(C6CCC(=O)NC6=O)cc5)CC4)CC3)C2)ccc1Nc1ncc2c(n1)N(C1CCCC1)CC(F)(F)C(=O)N2C` (stereo not drawn) [Compound 16, 4-((9-cyclopentyl-7,7-difluoro-5-methyl-6-oxo-6,7,8,9-tetrahydro-5H-pyrimido[4,5-b][1,4]diazepin-2-yl)amino)-N-(7-((1-(4-(2,6-dioxopiperidin-3-yl)phenyl)piperidin-4-yl)methyl)-7-azaspiro[3.5]nonan-2-yl)-3-methoxybenzamide], on PLK1, the remaining activity at 0.3 µM was under 30%. In addition, the pIC50 is over 7.52 in the test with NCI-H526 cell line and 5.04 in the test on MRC-5 cell line.

`COc1cc(C(=O)NN2CCC([C@@H](C)CN3CCN(c4ccc(C5CCC(=O)NC5=O)cc4F)CC3)CC2)ccc1Nc1ncc2c(n1)N(C1CCCC1)CC(F)(F)C(=O)N2C` (stereo partly drawn) [Compound 19, 4-((9-cyclopentyl-7,7-difluoro-5-methyl-6-oxo-6,7,8,9-tetrahydro-5H-pyrimido[4,5-b][1,4]diazepin-2-yl)amino)-N-(4-((2R)-1-(4-(4-(2,6-dioxopiperidin-3-yl)-2-fluorophenyl)piperazin-1-yl)propan-2-yl)piperidin-1-yl)-3-methoxybenzamide]: the remaining activity at 0.3 µM at PLK1 was under 30%. The negative logarithm of the IC50 (pIC50) is over 7.52 with NCI-H526 cell line and under 5.00 in the test with MRC-5 cell line.

Turning to `COc1cc(C(=O)NN2CCC([C@H](C)CN3CCN(c4ccc(C5CCC(=O)NC5=O)cc4F)CC3)CC2)ccc1Nc1ncc2c(n1)N(C1CCCC1)CC(F)(F)C(=O)N2C` (stereo partly drawn) [Compound 20, 4-((9-cyclopentyl-7,7-difluoro-5-methyl-6-oxo-6,7,8,9-tetrahydro-5H-pyrimido[4,5-b][1,4]diazepin-2-yl)amino)-N-(4-((2S)-1-(4-(4-(2,6-dioxopiperidin-3-yl)-2-fluorophenyl)piperazin-1-yl)propan-2-yl)piperidin-1-yl)-3-methoxybenzamide], on PLK1, the remaining activity at 0.3 µM is under 30%. For the same compound, the negative-log IC50 (pIC50) in the test on NCI-H526 cell line was over 7.30; in the test with MRC-5 cell line it was under 5.00.

As for `COc1cc(C(=O)NC2CCN(CC3CC4(CCN(c5ccc(C6CCC(=O)NC6=O)cc5F)CC4)C3)CC2)ccc1Nc1ncc2c(n1)N(C1CCCC1)CC(F)(F)C(=O)N2C` (stereo not drawn) [Compound 21, 4-((9-cyclopentyl-7,7-difluoro-5-methyl-6-oxo-6,7,8,9-tetrahydro-5H-pyrimido[4,5-b][1,4]diazepin-2-yl)amino)-N-(1-((7-(4-(2,6-dioxopiperidin-3-yl)-2-fluorophenyl)-7-azaspiro[3.5]nonan-2-yl)methyl)piperidin-4-yl)-3-methoxybenzamide], the remaining activity at 0.3 µM on PLK1 is under 30%. Further, the negative logarithm of the IC50 (pIC50) in the test on NCI-H526 cell line was over 7.30; in the test on MRC-5 cell line, under 5.00.

As to `COc1cc(C(=O)NCC2CCN(CC3CCN(c4ccc(C5CCC(=O)NC5=O)cc4F)CC3)CC2)ccc1Nc1ncc2c(n1)N(C1CCCC1)CC(F)(F)C(=O)N2C` (stereo not drawn) [Compound 22, 4-((9-cyclopentyl-7,7-difluoro-5-methyl-6-oxo-6,7,8,9-tetrahydro-5H-pyrimido[4,5-b][1,4]diazepin-2-yl)amino)-N-((1-((1-(4-(2,6-dioxopiperidin-3-yl)-2-fluorophenyl)piperidin-4-yl)methyl)piperidin-4-yl)methyl)-3-methoxybenzamide], the remaining activity at 0.3 µM at PLK1 was under 30%. Moreover, the pIC50 in the test on NCI-H526 cell line is over 7.52; with MRC-5 cell line it was under 5.00.

`COc1cc(C(=O)NCC2CC23CCN(CC2CCN(c4ccc(C5CCC(=O)NC5=O)cc4F)CC2)CC3)ccc1Nc1ncc2c(n1)N(C1CCCC1)CC(F)(F)C(=O)N2C` (stereo not drawn) [Compound 24, 4-((9-cyclopentyl-7,7-difluoro-5-methyl-6-oxo-6,7,8,9-tetrahydro-5H-pyrimido[4,5-b][1,4]diazepin-2-yl)amino)-N-((6-((1-(4-(2,6-dioxopiperidin-3-yl)-2-fluorophenyl)piperidin-4-yl)methyl)-6-azaspiro[2.5]octan-1-yl)methyl)-3-methoxybenzamide]: the remaining activity at 0.3 µM at PLK1 was under 30%. The pIC50 was over 7.30 with NCI-H526 cell line and under 5.00 in the test on MRC-5 cell line.

On to `COc1cc(C(=O)NC2CC3(CCN(CC4CCN(c5ccc(C6CCC(=O)NC6=O)cc5C)CC4)CC3)C2)ccc1Nc1ncc2c(n1)N(C1CCCC1)CC(F)(F)C(=O)N2C` (stereo not drawn) [Compound 25, 4-((9-cyclopentyl-7,7-difluoro-5-methyl-6-oxo-6,7,8,9-tetrahydro-5H-pyrimido[4,5-b][1,4]diazepin-2-yl)amino)-N-(7-((1-(4-(2,6-dioxopiperidin-3-yl)-2-methylphenyl)piperidin-4-yl)methyl)-7-azaspiro[3.5]nonan-2-yl)-3-methoxybenzamide], for which the remaining activity at 0.3 µM at PLK1 is under 30%. Further, the results for the pIC50 with NCI-H526 cell line and with MRC-5 cell line were over 7.52 and under 5.00, respectively.

For `COc1cc(C(=O)NC2CC3(CCN(CC4(C)CCN(c5ccc(C6CCC(=O)NC6=O)cc5F)CC4)CC3)C2)ccc1Nc1ncc2c(n1)N(C1CCCC1)CC(F)(F)C(=O)N2C` (stereo not drawn) [Compound 26, 4-((9-cyclopentyl-7,7-difluoro-5-methyl-6-oxo-6,7,8,9-tetrahydro-5H-pyrimido[4,5-b][1,4]diazepin-2-yl)amino)-N-(7-((1-(4-(2,6-dioxopiperidin-3-yl)-2-fluorophenyl)-4-methylpiperidin-4-yl)methyl)-7-azaspiro[3.5]nonan-2-yl)-3-methoxybenzamide], on PLK1, the remaining activity at 0.3 µM is under 60%. The negative-log IC50 (pIC50) in the test on NCI-H526 cell line is over 7.30; in the test on MRC-5 cell line, 5.25.

Turning to `COc1cc(C(=O)NC2CC3(CCN(CC4CCN(c5ccc(C6CCC(=O)NC6=O)cc5F)CC4C)CC3)C2)ccc1Nc1ncc2c(n1)N(C1CCCC1)CC(F)(F)C(=O)N2C` (stereo not drawn) [Compound 27, 4-((9-cyclopentyl-7,7-difluoro-5-methyl-6-oxo-6,7,8,9-tetrahydro-5H-pyrimido[4,5-b][1,4]diazepin-2-yl)amino)-N-(7-((1-(4-(2,6-dioxopiperidin-3-yl)-2-fluorophenyl)-3-methylpiperidin-4-yl)methyl)-7-azaspiro[3.5]nonan-2-yl)-3-methoxybenzamide], at PLK1, the remaining activity at 0.3 µM was under 60%. Besides, the negative-log IC50 (pIC50) was over 7.52 with NCI-H526 cell line and under 5.00 in the test on MRC-5 cell line.

Take `COc1cc(C(=O)NC2CCN(C(=O)CCN3CCN(c4ccc(N5CCC(=O)NC5=O)cc4)CC3)CC2)ccc1Nc1ncc2c(n1)N(C1CCCC1)CC(F)(F)C(=O)N2C` [Compound 32, 4-((9-cyclopentyl-7,7-difluoro-5-methyl-6-oxo-6,7,8,9-tetrahydro-5H-pyrimido[4,5-b][1,4]diazepin-2-yl)amino)-N-(1-(3-(4-(4-(2,4-dioxotetrahydropyrimidin-1(2H)-yl)phenyl)piperazin-1-yl)propanoyl)piperidin-4-yl)-3-methoxybenzamide]: on PLK1, the remaining activity at 0.3 µM is under 60%. Moreover, the pIC50 in the test on NCI-H526 cell line was over 7.52; with MRC-5 cell line, under 5.00.
